Measurements from patent publication US7192953B2, “Antibacterial agents” (Vernalis (Oxford) Limited, priority 2002, dated 2007).
Converted amounts (≈) assume the structure as drawn.

How the values were obtained:
Type in all cases: cell-based
S. pneumoniae = assay: MIC by agar plate dilution against clinical isolates of S. pneumoniae; conditions: 6 strains of S. pneumoniae (clinical isolates), 18 to 24 hr, 35° C; for MIC: Streptococcus pneumoniae, read-out: MIC or MIC range, S. pneumoniae
Method: (§1) Minimal Inhibitory concentrations (MIC) of inhibitors against clinical isolates of S. pneumoniae, H. influenzae and M. catarrhalis obtained from the Public Health and Clinical Microbiology Laboratory, Addenbrooke's Hospital, Hills Road, Cambridge CB2 2QW, UK, were determined by a standard agar plate dilution method following recommended in British Society for Antimicrobial Chemotherapy Working Party. 1991. “A guide to sensitivity testing British Society for Antimicrobial Chemotherapy, London, United Kingdom”. Briefly Iso-Sensitest agar (pH 7.2: Oxoid, United Kingdom) was employed supplemented with 5% horse blood (Oxoid) and 20 μg of NAD (Sigma) per ml to support growth of fastidious bacteria. The inoculum used was approximately 10^4 colony forming units of each isolate contained in a volume of 1 μl. Plates were incubated 18 to 24 hr in air, or for fastidious bacteria an atmosphere enriched with 4–6% carbon dioxide at 35° C. The MIC was determined as the lowest concentration of an antimicrobial tested that inhibited growth of the inoculum, disregarding a single persisting colony or faint haze caused by the inoculation.
(§2) The compounds of the Examples were are antibacterially active in the above assays, The following table states the MICs or MIC ranges of the tested compounds against 6 strains of S. pneumoniae, 4 strains of H. influenzae and 3 strains of M. catarrhalis.

H. influenzae = assay: MIC by agar plate dilution against clinical isolates of H. influenzae; conditions: 4 strains of H. influenzae (clinical isolates), 18 to 24 hr, 35° C; for MIC: Haemophilus influenzae, read-out: MIC or MIC range, H. Influenzae
Method: as §1, §2

M. catarrhalis = assay: MIC by agar plate dilution against clinical isolates of M. catarrhalis; conditions: 3 strains of M. catarrhalis (clinical isolates), 18 to 24 hr, 35° C; for MIC: Moraxella catarrhalis, read-out: MIC or MIC range, M. catarrhalis
Method: as §1, §2

Compound	MIC (S. pneumoniae)	MIC (H. influenzae)	MIC (M. catarrhalis)	MIC or MIC range, S. pneumoniae (S. pneumoniae)	MIC or MIC range, M. catarrhalis (M. catarrhalis)	MIC or MIC range, H. Influenzae (H. influenzae)
COCC(=O)N1CCCCN1C(=O)[C@H](CC1CCCC1)CN(O)C=O [Example 2, N-{(2R)-Cyclopentylmethyl-3-[2-(2-methoxyacetyl)tetrahydropyridazin-1-yl]-3-oxo-propyl}-N-hydroxyformamide]	1 to 8 µg/mL (≈ 2.81 to 22.5 µM)	0.25 to 8 µg/mL (≈ 0.703 to 22.5 µM)	0.25 µg/mL (≈ 0.703 µM)			
O=CN(O)C[C@@H](CC1CCCC1)C(=O)N1CCCCN1C(=O)c1ccccc1 [Example 3, N-{(2R)-Cyclopentylmethyl-3-[2-benzoyl-tetrahydropyridazin-1-yl]-3-oxo-propyl}-N-hydroxyformamide]	0.5 to 2 µg/mL (≈ 1.29 to 5.16 µM)	1 to 4 µg/mL (≈ 2.58 to 10.3 µM)	0.125 µg/mL (≈ 0.323 µM)			
O=CN(O)C[C@@H](CC1CCCC1)C(=O)N1CCCCN1C(=O)c1ccc(C(F)(F)F)cc1 [Example 4, N-{(2R)-Cyclopentylmethyl-3-[2-(4-trifluoromethylbenzoyl)-tetrahydropyridazin-1-yl]-3-oxo-propyl}-N-hydroxyformamide]	0.5 to 4 µg/mL (≈ 1.1 to 8.78 µM)		0.5 µg/mL (≈ 1.1 µM)			
O=CN(O)C[C@@H](CC1CCCC1)C(=O)N1CCCCN1C(=O)c1ccncc1 [Example 5, N-{(2R)-Cyclopentylmethyl-3-[2-(pyridine-4-Carbonyl)-tetrahydropyridazin-1-yl]-3-oxo-propyl}-N-hydroxyformamide]	2 to 16 µg/mL (≈ 5.15 to 41.2 µM)		0.25 µg/mL (≈ 0.644 µM)			
O=CN(O)C[C@@H](CC1CCCC1)C(=O)N1CCCCN1C(=O)C1CCCCC1 [Example 6, N-{(2R)-Cyclopentylmethyl-3-[2-Cyclohexanecarbonyl-tetrahydropyridazin-1-yl]-3-oxo-propyl}-N-hydroxyformamide]	0.5 to 2 µg/mL (≈ 1.27 to 5.08 µM)	4 to 8 µg/mL (≈ 10.2 to 20.3 µM)	0.06 µg/mL (≈ 0.152 µM)			
COc1ccc(C(=O)N2CCCCN2C(=O)[C@H](CC2CCCC2)CN(O)C=O)cc1 [Example 7, N-{(2R)-Cyclopentylmethyl-3-[2-(4-methoxybenzoyl)-tetrahydropyridazin-1-yl]-3-oxo-propyl}-N-hydroxyformamide]	0.5 to 4 µg/mL (≈ 1.2 to 9.58 µM)		0.5 µg/mL (≈ 1.2 µM)			
O=CN(O)C[C@@H](CC1CCCC1)C(=O)N1CCCCN1C(=O)c1ccc2c(c1)OCO2 [Example 8, N-{(2R)-Cyclopentylmethyl-3-[2-(benzo[1,3]dioxole-5carbonyl)-tetrahydropyridazin-1-yl]-3-oxo-propyl}-N-hydroxyformamide]	0.5 to 4 µg/mL (≈ 1.16 to 9.27 µM)	1 to 8 µg/mL (≈ 2.32 to 18.5 µM)	0.5 µg/mL (≈ 1.16 µM)			
O=CN(O)C[C@@H](CC1CCCC1)C(=O)N1CCCCN1C(=O)c1ccoc1 [Example 9, N-{(2R)-Cyclopentylmethyl-3-[2-(furan-3-Carbonyl)-tetrahydropyridazin-1-yl]-3-oxo-propyl}-N-hydroxyformamide]	0.5 to 2 µg/mL (≈ 1.32 to 5.3 µM)	0.125 to 8 µg/mL (≈ 0.331 to 21.2 µM)	< 0.93 µg/mL			
O=CN(O)C[C@@H](CC1CCCC1)C(=O)N1CCCCN1C(=O)c1ccc(F)cc1 [Example 10, N-{(2R)-Cyclopentylmethyl-3-[2-(4-fluorobenzoyl)-tetrahydropyridazin-1-yl]-3-oxo-propyl}-N-hydroxyformamide]	0.5 to 4 µg/mL (≈ 1.23 to 9.87 µM)	0.5 to 2 µg/mL (≈ 1.23 to 4.93 µM)	0.5 µg/mL (≈ 1.23 µM)			
O=CN(O)C[C@@H](CC1CCCC1)C(=O)N1CCCCN1C(=O)Cc1ccccc1 [Example 11, N-{(2R)-Cyclopentylmethyl-3-[2-phenylacetyl-tetrahydropyridazin-1-yl]-3-oxo-propyl}-N-hydroxyformamide]	0.5 to 4 µg/mL (≈ 1.25 to 9.96 µM)	0.25 to 2 µg/mL (≈ 0.623 to 4.98 µM)	0.25 µg/mL (≈ 0.623 µM)			
O=CN(O)C[C@@H](CC1CCCC1)C(=O)N1CCCCN1C(=O)c1ccc(N2CCOCC2)nc1 [Example 12, N-{(2R)-Cyclopentylmethyl-3-[2-(6-morpholin-4-yl-pyridine-3-Carbonyl)-tetrahydropyridazin-1-yl]-3-oxo-propyl}N-hydroxyformamide]	2 to 16 µg/mL (≈ 4.22 to 33.8 µM)	16 to 32 µg/mL (≈ 33.8 to 67.6 µM)	1 µg/mL (≈ 2.11 µM)			
O=CN(O)C[C@@H](CC1CCCC1)C(=O)N1CCCCN1C(=O)Nc1cc(C(F)(F)F)cc(C(F)(F)F)c1 [Example 13, 2-[(2R)-Cyclopentylmethyl-3-(formylhydroxyamino)-propionyl]-tetrahydropyridazine-1-Carboxylic acid (3,5-bis-(trifluoromethyl)phenyl)amide]				8 to 16 µg/mL	2 µg/mL (≈ 3.71 µM)	
O=CN(O)C[C@@H](CC1CCCC1)C(=O)N1CCCCN1C(=O)Nc1ccccc1 [Example 14, 2-[(2R)-Cyclopentylmethyl-3-(formylhydroxyamino)-propionyl]-tetrahydropyridazine-1-Carboxylic acid phenylamide]	2 to 4 µg/mL (≈ 4.97 to 9.94 µM)	0.125 to 4 µg/mL (≈ 0.311 to 9.94 µM)	< 0.125 µg/mL			
COc1cccc(NC(=O)N2CCCCN2C(=O)[C@H](CC2CCCC2)CN(O)C=O)c1 [Example 15, 2-[(2R)-Cyclopentylmethyl-3-(formylhydroxyamino)-propionyl]-tetrahydropyridazine-1-Carboxylic acid (3-methoxyphenyl)amide]	2 to 4 µg/mL (≈ 4.62 to 9.25 µM)	0.125 to 4 µg/mL (≈ 0.289 to 9.25 µM)	< 0.125 µg/mL			
O=CN(O)C[C@@H](CC1CCCC1)C(=O)N1CCCCN1C(=O)Nc1ccc(F)cc1 [Example 16, 2-[(2R)-Cyclopentylmethyl-3-(formylhydroxyamino)propionyl]-tetrahydropyridazine-1-Carboxylic acid (4-fluorophenyl)amide]	4 to 8 µg/mL (≈ 9.51 to 19 µM)	0.125 to 4 µg/mL (≈ 0.297 to 9.51 µM)	< 0.125 µg/mL			
O=CN(O)C[C@@H](CC1CCCC1)C(=O)N1CCCCN1C(=O)Nc1ccc(F)cc1F [Example 17, 2-[(2R)-Cyclopentylmethyl-3-(formylhydroxyamino)-propionyl]-tetrahydropyridazine-1-Carboxylic acid (2,4-bis(fluoro)phenyl)amide]	4 to 8 µg/mL (≈ 9.12 to 18.2 µM)	0.125 µg/mL (≈ 0.285 µM)	< 0.125 µg/mL			
O=CN(O)C[C@@H](CC1CCCC1)C(=O)N1CCCCN1C(=O)Nc1ccc(C(F)(F)F)cc1 [Example 18, 2-[(2R)-Cyclopentylmethyl-3-(formylhydroxyamino)-propionyl]-tetrahydropyridazine-1-Carboxylic acid (4-trifluoromethylphenyl)amide]	4 µg/mL (≈ 8.5 µM)	0.25 to 16 µg/mL (≈ 0.531 to 34 µM)	< 0.125 µg/mL			
O=CN(O)C[C@@H](CC1CCCC1)C(=O)N1CCCCN1C(=O)Nc1ccc2c(c1)OCCO2 [Example 19, 2-[(2R)-Cyclopentylmethyl-3-(formylhydroxyamino)-propionyl]-tetrahydropyridazine-1-Carboxylic acid (2,3,4a,8a-tetrahydrobenzo[1,4]dioxin-6-yl)amide]	2 to 4 µg/mL (≈ 4.34 to 8.69 µM)	0.125 to 4 µg/mL (≈ 0.271 to 8.69 µM)	< 0.125 µg/mL			
COc1ccccc1NC(=O)N1CCCCN1C(=O)[C@H](CC1CCCC1)CN(O)C=O [Example 20, 2-[(2R)-Cyclopentylmethyl-3-(formylhydroxyamino)-propionyl]-tetrahydropyridazine-1-Carboxylic acid (2-methoxyphenyl)amide]	4 to 8 µg/mL (≈ 9.25 to 18.5 µM)	0.5 to 2 µg/mL (≈ 1.16 to 4.62 µM)	< 0.03 µg/mL			
O=CN(O)C[C@@H](CC1CCCC1)C(=O)N1CCCCN1C(=O)N1CCC(Cc2ccccc2)CC1 [Example 22, N-{(2R)-Cyclopentylmethyl-3-[2-(4-benzylpiperidine-1-Carbonyl)-tetrahydropyridazin-1-yl]-3-oxo-propyl}-N-hydroxyformamide]	4 to 16 µg/mL (≈ 8.25 to 33 µM)		2 µg/mL (≈ 4.13 µM)			
O=CN(O)C[C@@H](CC1CCCC1)C(=O)N1CCCN1C(=O)c1ccncc1 [Example 30, N-{(2R)-Cyclopentylmethyl-3-[2-(pyridine-4-Carbonyl)-pyrazolidin-1-yl]-3-oxo-propyl}-N-hydroxyformamide]	16 to 32 µg/mL (≈ 42.7 to 85.5 µM)		0.125 µg/mL (≈ 0.334 µM)			
O=CN(O)C[C@@H](CC1CCCC1)C(=O)N1CCCN1C(=O)c1ccoc1 [Example 37, N-{(2R)-Cyclopentylmethyl-3-[2-(furan-3-Carbonyl)-pyrazolidin-1-yl]-3-oxo-propyl}-N-hydroxyformamide]	4 µg/mL (≈ 11 µM)		0.06 µg/mL (≈ 0.165 µM)			
O=CN(O)C[C@@H](CC1CCCC1)C(=O)N1CCCN1C(=O)Nc1ccc(C(F)(F)F)cc1 [Example 42, 2-[(2R)-Cyclopentylmethyl-3-(formylhydroxyamino)-propionyl]-pyrazolidine-1-Carboxylic acid (4-trifluoromethylphenyl)amide]	2 to 8 µg/mL (≈ 4.38 to 17.5 µM)	2 to 8 µg/mL (≈ 4.38 to 17.5 µM)				
CN(C(=O)N1CCCN1C(=O)[C@H](CC1CCCC1)CN(O)C=O)c1ccccc1 [Example 43, 2-[(2R)-Cyclopentylmethyl-3-(formylhydroxyamino)-propionyl]-pyrazolidine-1-Carboxylic acid methylphenylamide]					8 µg/mL (≈ 19.9 µM)	16 to 32 µg/mL
O=C(C[C@@H](CC1CCCC1)C(=O)N1CCCCN1C(=O)Nc1ccccc1)NO [Example 45, 2-[(2R)-Cyclopentylmethyl-3-hydroxycarbamoylpropionyl]-tetrahydropyridazine-1-Carboxylic acid phenylamide]				4 to 8 µg/mL		1 to 4 µg/mL
